The values that follow come from PMC11352273, “The Proapoptotic Action of Pyrrolidinedione–Thiazolidinone Hybrids towards Human Breast Carcinoma Cells Does Not Depend on Their Genotype” (Cancers, 2024).

A word on the IC50: it is the concentration at which inhibition is half-maximal. A word on the inhibition: it is the relative decrease from the control value, in per cent.

One assay relates to 4T1 cells. Put plainly: MTT assay. The conditions noted are these: Mus musculus, read-out: IC50, µM (M ± SD). It counts as cell-based, murine. The procedure:
(§1) The MCF-7 and MDA-MB-231 cells were cultured in the DMEM medium containing 10% of the FBS, HCC1954, T-47D, and 4T1 cells in the RPMI-1640 medium with the addition of 10% of the FBS, and MCF-10A cells in MEGM Mammary Epithelial Cell Growth Medium BulletKit supplemented with penicillin/streptomycin cocktail and 5% of horse serum. The cells were cultured in a […] atmosphere at 5% CO2 and 37 °C. After trypsinization, cells were counted using a Scepter 3.0 handheld automated cell counter (Millipore, Burlington, MA, USA).
(§2) The MTT test was used to assess the metabolic activity of cells treated with the investigated substances following the Sigma-Aldrich manufacturer’s instructions. Briefly, compounds were added in 100 µL of the cultural medium, and cells were incubated for the next 24 and 48 h. Doxorubicin was used as a reference drug. The DMSO was added to dissolve the crystals of formazan. We used the ThermoScientific Evolution 201 UV–VIS spectrophotometer (ThermoFisher Scientific, Waltham, MA, USA) to measure the absorbance of formazan at 570 nm. The initial value of the relative number of cells in control (under 0.1% of the DMSO) was accepted as 100%. We used GraphPad Prism Version 9 to calculate the half-maximal inhibition concentration (IC50) of the studied compounds (the concentration of the drug that reduced cell viability by 50%).

Assay [1] deals with HCC1954 cells. Put plainly: MTT assay. It counts as cell-based. The note with it: Homo sapiens, read-out: IC50, µM (M ± SD). How it is done:
as §1, §2
On the technique in general: Formazan colour is commonly taken as a measure of viable cells.

Assay [2] concerns MCF-7 cells. Put plainly: MTT assay. The format is cell-based. The note with it: Homo sapiens, read-out: IC50, µM (M ± SD). How it is done: as §1, §2
Assay [3] has as its system MDA-MB-231 cells. Put plainly: MTT assay. The format is cell-based. The conditions noted are these: Homo sapiens, read-out: IC50, µM (M ± SD). How it is done:
as §1, §2

Another assay deals with T-47D cells. Put plainly: MTT assay. The conditions noted are these: Homo sapiens, T47D, read-out: IC50, µM (M ± SD). It counts as cell-based. The procedure:
as §1, §2

Assay [4] has as its system MCF-10A cells. Put plainly: MTT assay. It counts as cell-based, human. The procedure:
as §1, §2

Assay [5] relates to HCC1954 cells. The experiment in a line: Clonogenic assay. The format is cell-based, human. The conditions noted are these: Homo sapiens; HCC1954; 72 h exposure, 14 days culture; read-out: IC50 (M ± SD) in clonogenic assay. The procedure: (§3) The clonogenic assay was carried out utilizing the previously published methodology. The MCF-7, MDA-MB-231, HCC1954, and MCF-10A cells (500 cells/2 mL) were seeded in a 12-well plate overnight. Afterward, studied derivatives or doxorubicin (1, 2.5, 5, 10, and 50 µM) were added to cells. The media was changed after 72 h to a compound-free one, and the cells were cultured for the following 14 days. Then, the cells were washed, fixed, and stained with 0.1% crystal violet. After washing, the plates were dried at room temperature. The colonies were recorded by ImageJ software (Version 1.30). The value of colonies in control (non-treated cells) was accepted as 100%. The effect of compounds on the colony-forming ability of cells was expressed as the percentage of colonies compared to the control.

Assay [6] relates to MCF-7 cells. Put plainly: Clonogenic assay. It counts as cell-based, human. The note with it: for IC50: Homo sapiens, MCF7, MCF-7, 72 h exposure, 14 days culture, read-out: IC50 (M ± SD) in clonogenic assay; for formation of colonies: MCF-7, compound at 5 µM. How it is done:
as §3

The subject of assay [7] is MDA-MB-231 cells. Put plainly: Clonogenic assay. It counts as cell-based, human. The conditions noted are these: for IC50: Homo sapiens, MDA-MB-231, 72 h exposure, 14 days culture, read-out: IC50 (M ± SD) in clonogenic assay. How it is done:
as §3

The test system of assay [8] is MCF-10A cells. The experiment in a line: Clonogenic assay. It counts as cell-based. The conditions noted are these: Homo sapiens; for IC50: 72 h exposure, 14 days culture, read-out: IC50 (M ± SD) in clonogenic assay; for inhibition at 50 µM: compound at 50 µM, read-out: inhibition of the formation of colonies. How it is done: as §3
The test system of assay [9] is MDA-MB-231, 4T1, MCF-7, T-47D, and HCC1954 cells. The experiment in a line: MTT assay, summary over breast carcinoma cell lines. The note with it: for IC50: Breast carcinoma cell, 24 and 48 h, all five cancer cell lines and all three hybrids together, read-out: IC50, range over breast carcinoma cell lines; for selectivity index (SI = IC50 for MCF-10A/IC50 for human breast tumor cells): range over cell lines and time points. It counts as cell-based. The procedure: as §1, §2

The subject of assay [10] is normal human keratinocytes (HaCaT). Details: method as in PMID 37579525. The conditions noted are these: cited from earlier work.
Assay [11] deals with mitogen-activated lymphocytes collected from the peripheral blood of a healthy donor. Further details: method as in PMID 37579525. The conditions noted are these: cited from earlier work.
Where [12] appears, read: Homo sapiens, MCF-10A, 24 h, MCF-10A, 24 h, read-out: IC50, µM (M ± SD).
The mark [13] stands for this setting: Homo sapiens, MCF-10A, 48 h, MCF-10A, 48 h, read-out: IC50, µM (M ± SD).
Setting [14] is: Homo sapiens, MCF-10A, time point not specified (24 and 48 h), read-out: IC50 towards MCF-10A cells.
[15] abbreviates: time point not specified (24 and 48 h), read-out: IC50 towards MCF-10A cells.

Molecules are shown by their SMILES. Read-outs that look alike come from different tables or passages of the source. Bounds are passed on as bounds.

As for `O=C1CC(N2C(=O)C(=CC(Cl)=Cc3ccc([N+](=O)[O-])cc3)SC2=S)C(=O)N1c1ccc(Cl)cc1` (stereo not drawn) [Les-6294, 1-(4-chlorophenyl)-3-[5-[2-chloro-3-(4-nitrophenyl)prop-2-enylidene]-4-oxo-2-thioxothiazolidine-3-yl]pyrrolidine-2,5-dione], the IC50 in the assay on 4T1 cells (4T1, 24 h) worked out at 2.2 ± 0.19 µM; in the assay with 4T1 cells (4T1, 48 h), 2.22 ± 0.25 µM; in the assay on HCC1954 cells [1] (HCC1954, 24 h), 4.53 ± 0.18 µM; in the assay with HCC1954 cells [1] (HCC1954, 48 h) it was 5.01 ± 0.23 µM; with MCF-7 cells [2] (MCF7, MCF-7, 24 h), 6.74 ± 0.64 µM; in the assay with MCF-7 cells [2] (MCF7, MCF-7, 48 h), 3.54 ± 0.14 µM. Moreover, the IC50 was 21.9 ± 9.92 µM in the assay with MDA-MB-231 cells [3] (MDA-MB-231, 24 h); 3.72 ± 0.22 µM in the assay on MDA-MB-231 cells [3] (MDA-MB-231, 48 h); 4.48 ± 0.51 µM with T-47D cells (24 h); 2.66 ± 0.21 µM with T-47D cells (48 h); greater than 100 µM in the assay with MCF-10A cells [4] (setting [12]); greater than 100 µM with MCF-10A cells [4] (setting [13]). The 50% inhibitory concentration (IC50) in the assay on MCF-10A cells [4] (setting [14]) is greater than 100 µM; in the assay on MCF-10A cells [4] (setting [15]), greater than 64.6 µM; in the assay on HCC1954 cells [5], 3.05 ± 0.03 µM; with MCF-7 cells [6], 1.33 ± 0.1 µM; in the assay on MDA-MB-231 cells [7] it was 0.67 ± 0.08 µM; in the assay on MCF-10A cells [8] it was greater than 50 µM. Moreover, the IC50 in assay [9] was 1.37 to 21.9 µM; in assay [10], greater than 73.6 µM; in assay [11] it was 29 to 67 µM. Besides, the formation of colonies result with MCF-7 cells [6] was “totally inhibited”; in the assay on MDA-MB-231 cells [7] (MDA-MB-231, compound at 5 µM) it was “did not observe the growth”. Also, the inhibition at 50 µM in the assay with MCF-10A cells [8] came out at 37.1%. In addition, the “selectivity index (SI = IC50 for MCF-10A/IC50 for human breast tumor cells)” value in assay [9] is 4.57–37.59.
In the case of `O=C1CC(N2C(=O)C(=CC(Cl)=Cc3ccc([N+](=O)[O-])cc3)SC2=S)C(=O)N1c1ccc(Br)cc1` (stereo not drawn) [Les-6328, 1-(4-bromophenyl)-3-[5-[2-chloro-3-(4-nitrophenyl)prop-2-enylidene]-4-oxo-2-thioxothiazolidine-3-yl]pyrrolidine-2,5-dione], the IC50 was determined as 2.25 ± 0.34 µM in the assay with 4T1 cells (4T1, 24 h); 1.94 ± 0.15 µM in the assay on 4T1 cells (4T1, 48 h); 9.91 ± 0.17 µM with HCC1954 cells [1] (HCC1954, 24 h); 6.4 ± 0.25 µM with HCC1954 cells [1] (HCC1954, 48 h); 3.26 ± 0.4 µM in the assay on MCF-7 cells [2] (MCF7, MCF-7, 24 h); 2.18 ± 0.19 µM in the assay on MCF-7 cells [2] (MCF7, MCF-7, 48 h). In addition, the IC50 is 6.09 ± 0.33 µM in the assay with MDA-MB-231 cells [3] (MDA-MB-231, 24 h); 2.01 ± 0.12 µM in the assay on MDA-MB-231 cells [3] (MDA-MB-231, 48 h); 4.08 ± 0.56 µM in the assay with T-47D cells (24 h); 1.97 ± 0.58 µM with T-47D cells (48 h); greater than 100 µM in the assay on MCF-10A cells [4] (setting [12]); greater than 100 µM in the assay on MCF-10A cells [4] (setting [13]). Besides, the IC50 in the assay on MCF-10A cells [4] (setting [14]) is greater than 100 µM; in the assay on MCF-10A cells [4] (setting [15]), greater than 64.6 µM; in the assay with HCC1954 cells [5] it was 1.54 ± 0.02 µM; in the assay with MCF-7 cells [6] it was 1.57 ± 0.12 µM; in the assay with MDA-MB-231 cells [7], 1.19 ± 0.03 µM; with MCF-10A cells [8], greater than 50 µM. For the same molecule, the IC50 in assay [9] lay within 1.37 to 21.9 µM. The formation of colonies result in the assay on MCF-7 cells [6] was “totally inhibited”; in the assay with MDA-MB-231 cells [7] (MDA-MB-231, compound at 2.5 µM) it was “did not observe the growth”. Also, the inhibition at 50 µM in the assay with MCF-10A cells [8] stood at 25.9%. Also, the “selectivity index (SI = IC50 for MCF-10A/IC50 for human breast tumor cells)” value in assay [9] was 10.09–50.76.
